Activity calls are given as the source filed them. The calls are words filed in the database; no cut-off is given here.
Legend:
[1] = molecular target: T1, Poly [ADP-ribose] polymerase 1 (Homo sapiens, UniProt P09874); experiment: Inhibition of PARP-1 (unknown origin) assessed as fold change in inhibition using Femto-ECL as substrate preincubated for 2.7 hrs followed by substrate addition by chemiluminescence assay
20S proteasome = experiment: Inhibition of 20S proteasome (unknown origin) using […] as substrate; assay type: protein-complex assay, Homo sapiens
[2] = molecular target: T1, Poly [ADP-ribose] polymerase 1; experiment: Inhibition of PARP-1 in human BT-549 cells assessed as downregulation of RAD51 expression at 0.05 uM incubated for 48 hrs by immunoblotting analysis; assay type: cell-based
BT-549 [3] = experiment: Induction of DNA damage in human BT-549 cells assessed as decrease in BRCA1 localization in nucleus at 0.125 uM incubated for 48 hrs by fluorescence confocal microscopic analysis; assay type: functional, cell-based
[4] = molecular target: T1, Poly [ADP-ribose] polymerase 1; experiment: Inhibition of PARP-1 in human BT-549 cells assessed as downregulation of BRCA1 expression at 0.5 uM incubated for 48 hrs by immunoblotting analysis; assay type: cell-based
[5] = Antiproliferative activity against human COV362 cells assessed as fold change in inhibition of cell growth at 0.3 to 1.2 uM incubated for 72 hrs by MTT assay; assay type: functional; details: dose 0.3-1.2 µM
ES-2 = experiment: Antiproliferative activity against human ES2 cells assessed as fold change in inhibition of cell growth at 0.3 to 1.2 uM incubated for 72 hrs by MTT assay; assay type: functional; details: dose 0.3-1.2 µM
[6] = molecular target: T1, Poly [ADP-ribose] polymerase 1; experiment: Inhibition of PARP-1 in human BT-549 cells assessed as downregulation of P-ATM expression at 0.5 uM incubated for 48 hrs by immunoblotting analysis; assay type: cell-based
BT-549 [7] = experiment: Induction in cell cycle arrest in human BT-549 cells assessed as downregulation of CDK1 expression at 0.5 uM incubated for 48 hrs by Western blotting analysis; assay type: functional, cell-based
BT-549 [8] = experiment: Induction of apoptosis in human BT-549 cells assessed as upregulation of cleaved PARP expression incubated for 48 hrs by Western blotting analysis; assay type: functional, cell-based
MCF7 [9] = experiment: Antiproliferative activity against human MCF7 cells assessed as fold change in inhibition of cell growth at 0.3 to 1.2 uM incubated for 72 hrs by MTT assay; assay type: functional; details: dose 0.3-1.2 µM
MDA-MB-231 [10] = experiment: Cytotoxicity against human MDA-MB-231 cells assessed as inhibition of cell growth incubated for 72 hrs by MTT assay; assay type: functional, cell-based; details: MDA-MB-231, 72 h
NCI-H1299 = experiment: Antiproliferative activity against human NCI-H1299 cells assessed as fold change in inhibition of cell growth at 0.3 to 1.2 uM incubated for 72 hrs by MTT assay; assay type: functional; details: dose 0.3-1.2 µM
BT-549 [11] = experiment: Induction of DNA damage in human BT-549 cells assessed as decrease in polyubiquitination in nucleus at 0.125 uM incubated for 48 hrs by fluorescence confocal microscopic analysis; assay type: functional, cell-based
BT-549 [12] = experiment: Induction of apoptosis in human BT-549 cells assessed as increase in early apoptotic cells incubated for 48 hrs by Annexin V-FITC/PI staining based flow cytometric analysis; assay type: functional, cell-based
[13] = molecular target: T1, Poly [ADP-ribose] polymerase 1; experiment: Inhibition of PARP-1 in human BT-549 cells assessed as downregulation of BRCA1 expression at 0.05 uM incubated for 48 hrs by immunoblotting analysis; assay type: cell-based
BT-549 [14] = experiment: Induction in cell cycle arrest in human BT-549 cells assessed as downregulation of Cyclin A2 expression at 0.05 uM incubated for 48 hrs by Western blotting analysis; assay type: functional, cell-based
BT-549 [15] = experiment: Induction of DNA damage in human BT-549 cells assessed as upregulation of gamma-H2AX level at 0.5 uM incubated for 48 hrs by immunoblotting analysis; assay type: functional, cell-based
[16] = molecular target: T1, Poly [ADP-ribose] polymerase 1; experiment: Inhibition of PARP-1 in human BT-549 cells assessed as downregulation of RAD51 expression at 0.5 uM incubated for 48 hrs by immunoblotting analysis; assay type: cell-based
[17] = molecular target: T1, Poly [ADP-ribose] polymerase 1; experiment: Inhibition of PARP-1 in human BT-549 cells assessed as downregulation of P-ATM expression at 0.05 uM incubated for 48 hrs by immunoblotting analysis; assay type: cell-based
[18] = molecular target: T1, Poly [ADP-ribose] polymerase 1; experiment: Inhibition of PARP-1 in human BT-549 cells assessed as downregulation of BRCA2 mRNA expression incubated for 48 hrs by RT-qPCR analysis; assay type: cell-based
BT-549 [19] = experiment: Induction of DNA damage in human BT-549 cells assessed as increase in polyubiquitination at 0.125 uM incubated for 48 hrs by fluorescence confocal microscopic analysis; assay type: functional, cell-based
BT-549 [20] = experiment: Induction in cell cycle arrest in human BT-549 cells assessed as downregulation of Cyclin A2 expression at 0.5 uM incubated for 48 hrs by Western blotting analysis; assay type: functional, cell-based
BT-549 [21] = experiment: Induction of DNA damage in human BT-549 cells assessed as decrease in ubiquitin localization in nucleus at 0.125 uM incubated for 48 hrs by fluorescence confocal microscopic analysis; assay type: functional, cell-based
BT-549 [22] = experiment: Induction of apoptosis in human BT-549 cells assessed as upregulation of cleaved caspase-3 expression incubated for 48 hrs by Western blotting analysis; assay type: functional, cell-based
MCF7 [23] = experiment: Cytotoxicity against human MCF7 cells assessed as inhibition of cell growth incubated for 72 hrs by MTT assay; assay type: functional, cell-based; details: MCF7, 72 h
BT-549 [24] = experiment: Induction of apoptosis in human BT-549 cells assessed as increase in late apoptotic cells incubated for 48 hrs by Annexin V-FITC/PI staining based flow cytometric analysis; assay type: functional, cell-based
[25] = molecular target: T1, Poly [ADP-ribose] polymerase 1; experiment: Inhibition of PARP-1 (unknown origin) using Femto-ECL as substrate preincubated for 2.7 hrs followed by substrate addition by chemiluminescence assay
BT-549 [26] = experiment: Induction in cell cycle arrest in human BT-549 cells assessed as upregulation of p21 expression at 0.5 uM incubated for 48 hrs by Western blotting analysis; assay type: functional, cell-based
BT-549 [27] = experiment: Induction in cell cycle arrest in human BT-549 cells assessed as downregulation of CDK1 expression at 0.05 uM incubated for 48 hrs by Western blotting analysis; assay type: functional, cell-based
BT-549 [28] = experiment: Inhibition of colony formation in human BT-549 cells assessed as reduction in colony size incubated for 14 days by crystal violet staining based analysis; assay type: functional, cell-based; details: time 14.0 day
BT-549 [29] = experiment: Cytotoxicity against human BT-549 cells assessed as inhibition of cell growth incubated for 72 hrs by MTT assay; assay type: functional, cell-based; details: BT-549, 72 h
BT-549 [30] = experiment: Induction of DNA damage in human BT-549 cells assessed as increase in gamma-H2AX localization in nucleus at 0.125 uM incubated for 48 hrs by fluorescence confocal microscopic analysis; assay type: functional, cell-based
SK-OV-3 = experiment: Antiproliferative activity against human SK-OV-3 cells assessed as fold change in inhibition of cell growth at 0.3 to 1.2 uM incubated for 72 hrs by MTT assay; assay type: functional; details: dose 0.3-1.2 µM
HEY = experiment: Antiproliferative activity against human HEY cells assessed as fold change in inhibition of cell growth at 0.3 to 1.2 uM incubated for 72 hrs by MTT assay; assay type: functional; details: dose 0.3-1.2 µM
[31] = molecular target: T1, Poly [ADP-ribose] polymerase 1; experiment: Inhibition of PARP-1 in human BT-549 cells assessed as downregulation of RAD51 mRNA expression incubated for 48 hrs by RT-qPCR analysis; assay type: cell-based
A549 = experiment: Antiproliferative activity against human A549 cells assessed as fold change in inhibition of cell growth at 0.3 to 1.2 uM incubated for 72 hrs by MTT assay; assay type: functional; details: dose 0.3-1.2 µM
[32] = molecular target: T1, Poly [ADP-ribose] polymerase 1; experiment: Inhibition of PARP-1 in human BT-549 cells assessed as downregulation of BRCA1 mRNA expression incubated for 48 hrs by RT-qPCR analysis; assay type: cell-based
[33] = molecular target: T1, Poly [ADP-ribose] polymerase 1; experiment: Inhibition of PARP-1 in human BT-549 cells assessed as downregulation of FANCD2 mRNA expression incubated for 48 hrs by RT-qPCR analysis; assay type: cell-based
PC-3 = experiment: Antiproliferative activity against human PC-3 cells assessed as fold change in inhibition of cell growth at 0.3 to 1.2 uM incubated for 72 hrs by MTT assay; assay type: functional; details: dose 0.3-1.2 µM
BT-549 [34] = experiment: Induction of DNA damage in human BT-549 cells assessed as upregulation of gamma-H2AX level at 0.05 uM incubated for 48 hrs by immunoblotting analysis; assay type: functional, cell-based
BT-549 [35] = experiment: Inhibition of colony formation in human BT-549 cells assessed as reduction in colony number incubated for 14 days by crystal violet staining based analysis; assay type: functional, cell-based; details: time 14.0 day
BT-549 [36] = experiment: Induction in cell cycle arrest in human BT-549 cells assessed as upregulation of p21 expression at 0.05 uM incubated for 48 hrs by Western blotting analysis; assay type: functional, cell-based
MDA-MB-231 [37] = experiment: Antiproliferative activity against human MDA-MB-231 cells assessed as fold change in inhibition of cell growth at 0.3 to 1.2 uM incubated for 72 hrs by MTT assay; assay type: functional; details: dose 0.3-1.2 µM
BT-549 [38] = experiment: Antiproliferative activity against human BT-549 cells assessed as fold change in inhibition of cell growth at 0.3 to 1.2 uM incubated for 72 hrs by MTT assay; assay type: functional; details: dose 0.3-1.2 µM
BT-549 [39] = experiment: Synergistic antiproliferative activity against human BT-549 cells assessed as synergistic score in presence of Ixazomib; assay type: functional
BT-549 [40] = experiment: Induction of DNA damage in human BT-549 cells assessed as upregulation of gamma-H2AX level at 1 uM incubated for 48 hrs by immunoblotting analysis; assay type: functional, cell-based
BT-549 [41] = experiment: Synergistic antiproliferative activity against human BT-549 cells assessed as synergistic score in presence of Olaparib; assay type: functional

T1 sequence (P09874 whole entry): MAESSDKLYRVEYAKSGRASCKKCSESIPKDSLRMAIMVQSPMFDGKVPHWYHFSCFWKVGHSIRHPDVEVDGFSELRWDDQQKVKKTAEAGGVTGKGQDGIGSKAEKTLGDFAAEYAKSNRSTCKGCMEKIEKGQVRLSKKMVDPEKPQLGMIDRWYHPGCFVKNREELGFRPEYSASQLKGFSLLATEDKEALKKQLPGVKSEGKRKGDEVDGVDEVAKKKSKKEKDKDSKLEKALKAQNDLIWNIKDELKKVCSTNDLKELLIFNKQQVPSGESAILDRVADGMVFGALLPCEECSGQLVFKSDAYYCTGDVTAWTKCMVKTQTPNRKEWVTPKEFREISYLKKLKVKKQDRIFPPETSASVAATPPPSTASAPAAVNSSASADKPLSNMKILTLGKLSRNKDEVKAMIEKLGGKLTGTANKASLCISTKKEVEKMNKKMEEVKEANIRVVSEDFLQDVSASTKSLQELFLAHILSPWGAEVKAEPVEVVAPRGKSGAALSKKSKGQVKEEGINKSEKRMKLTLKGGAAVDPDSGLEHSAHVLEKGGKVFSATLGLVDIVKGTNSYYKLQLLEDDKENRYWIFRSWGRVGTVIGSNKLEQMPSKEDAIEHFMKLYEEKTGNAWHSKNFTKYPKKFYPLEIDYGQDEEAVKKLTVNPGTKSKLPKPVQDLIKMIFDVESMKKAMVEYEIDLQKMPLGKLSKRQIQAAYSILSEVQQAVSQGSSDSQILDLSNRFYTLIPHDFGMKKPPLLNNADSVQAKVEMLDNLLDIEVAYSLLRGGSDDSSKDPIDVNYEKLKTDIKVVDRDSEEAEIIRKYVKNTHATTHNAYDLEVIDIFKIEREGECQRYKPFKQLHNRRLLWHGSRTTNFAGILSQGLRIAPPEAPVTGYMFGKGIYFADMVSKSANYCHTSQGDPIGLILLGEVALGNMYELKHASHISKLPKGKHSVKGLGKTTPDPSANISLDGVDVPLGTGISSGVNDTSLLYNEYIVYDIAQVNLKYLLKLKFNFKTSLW

CC(C)C[C@H](NC(=O)[C@H](CC(C)C)NC(=O)c1cc(Cc2nn(C)c(=O)c3ccccc23)ccc1F)B1O[C@@H]2C[C@@H]3C[C@@H](C3(C)C)[C@]2(C)O1
fold change (FC) [1]: 100

CC(C)C[C@H](NC(=O)[C@H](CC(C)C)NC(=O)c1cc(Cc2n[nH]c(=O)c3ccccc23)ccc1F)B1O[C@@H]2C[C@@H]3C[C@@H](C3(C)C)[C@]2(C)O1
IC50 (20S proteasome): 60.9 nM
inhibition [2]: Active
Activity (BT-549 [3]): Active
inhibition [4]: Active
fold change (FC) [5]: 1
fold change (FC) (ES-2): 1
inhibition [6]: Active
Activity (BT-549 [7]): Active
Activity (BT-549 [8]): Dose-Dependent Effect
fold change (FC) (MCF7 [9]): 10
IC50 (MDA-MB-231 [10]): 31.2 nM
fold change (FC) (NCI-H1299): 1
Activity (BT-549 [11]): Active
Activity (BT-549 [12]): Dose-Dependent Effect
inhibition [13]: Active
Activity (BT-549 [14]): Active
Activity (BT-549 [15]): Active
inhibition [16]: Active
inhibition [17]: Active
inhibition [18]: Dose-Dependent Effect
Activity (BT-549 [19]): Active
Activity (BT-549 [20]): Active
Activity (BT-549 [21]): Active
Activity (BT-549 [22]): Dose-Dependent Effect
IC50 (MCF7 [23]): 49.5 nM
Activity (BT-549 [24]): Dose-Dependent Effect
IC50 [25]: 137 nM
Activity (BT-549 [26]): Active
Activity (BT-549 [27]): Active
inhibition (BT-549 [28]): Dose-Dependent Effect
IC50 (BT-549 [29]): 17.8 nM
Activity (BT-549 [30]): Active
fold change (FC) (SK-OV-3): 1
fold change (FC) (HEY): 1
inhibition [31]: Dose-Dependent Effect
fold change (FC) (A549): 1
inhibition [32]: Dose-Dependent Effect
inhibition [33]: Dose-Dependent Effect
fold change (FC) (PC-3): 1
Activity (BT-549 [34]): Active
inhibition (BT-549 [35]): Dose-Dependent Effect
Activity (BT-549 [36]): Active
fold change (FC) (MDA-MB-231 [37]): 10
fold change (FC) (BT-549 [38]): 10

O=C(c1cc(Cc2n[nH]c(=O)c3ccccc23)ccc1F)N1CCN(C(=O)C2CC2)CC1 [OLAPARIB]
Activity (BT-549 [39]): 12.407
IC50 (MDA-MB-231 [10]): > 30000 nM
Activity (BT-549 [15]): Active
IC50 (MCF7 [23]): 10600 nM
Activity (BT-549 [40]): Active
IC50 (BT-549 [29]): 6610 nM

CC(C)C[C@H](NC(=O)CNC(=O)c1cc(Cl)ccc1Cl)B(O)O [IXAZOMIB]
IC50 (MDA-MB-231 [10]): 42.6 nM
IC50 (MCF7 [23]): 135 nM
IC50 (BT-549 [29]): 227 nM
Activity (BT-549 [30]): inactive
Activity (BT-549 [41]): 12.191

Reference: ChEMBL document CHEMBL5528008, “Design and synthesis of the first PARP-1 and proteasome dual inhibitors to treat breast cancer” (Eur J Med Chem, 2024)
